From article PMC11459959, “Discovery of new acetamide derivatives of 5-indole-1,3,4-oxadiazol-2-thiol as inhibitors of HIV-1 Tat-mediated viral transcription” (Antimicrobial Agents and Chemotherapy, 2024)

Key:
[1] = tested on: HIV-1NL4-3 IRES-eGFP-nef+; test: eGFP-encoding HIV-1 infection of TZM-bl cells; format: cell-based; conditions: 9, 10, 13 1.5 μM, 20, 21, 22 4 μM, seliciclib 10 µM, triptolide 5 nM, DTG 2 nM, EFV 2 nM, 2 days
Description: Fig 4 (A) Comparison of the chemical structures between prominent derivatives (9, 10, and 13) and non-functional derivatives (20, 21 and 22). (B) bl-DTR cells were treated with serial dilutions of each compound upon Dox for 24 h. The activities of F-Luc and R-Luc were determined using the Dual-Glo -Luciferase assay system. (C) TZM-bl cells were infected with the HIV-1NL4-3 strain at an MOI of 1 upon treatment of compounds. At 48 h after infection, the viral infectivity and cell viability were determined as described above (Fig. 1). (D) TZM-bl cells were infected with HIV-1NL4-3 IRES-eGFP virus along with the compound treatment. Two days later, GFP-expressing cells were observed by fluorescence microscopy (100× magnification). […] At 48 h after infection, the β-gal activity indicating viral infectivity was determined using the β-gal Enzyme Assay kit. F-Luc activity and cell viability were determined as described above (Fig. 4C). (C and E) The dose-response curves show the relative activity compared with that of the DMSO vehicle (mean ± SD; n = 3).

[2] = tested on: proviral DNA integrated to the host chromosome; test: Integrated proviral DNA, nested Alu-PCR in A3.01 cells; format: cell-based, HIV-1; conditions: compounds 5 µM, 40 h after infection
Description: Fig 5 (A) Time-of-addition assay. […] Subsequently, the cells were treated with the compounds at the indicated time points (0, 1, 2, 4, 6, 8, 10, 12, 24, 30, 36, 42, and 48 h) after HIV-1 infection. The final concentrations of compounds are described in Materials and Methods. Viral activity according to the timing of drug addition was measured as F-Luc activity at 54 h after infection. The relative activities are represented as the mean ± SD (n = 3) compared with the activity observed 54 h post-infection. The relative time frames associated with each HIV-1 infection step are defined based on the time frame of susceptibility to the drug that blocks that particular infection step. […] At 16 h after infection, the viral reverse transcription (RT) product (viral cDNA) level was determined by quantitative real-time PCR (RT-qPCR) using gag and 18S rRNA primer sets and represented as the mean ± SD (n = 3) normalized against the amount of the 18S rRNA compared with the DMSO control. **P < 0.01 compared with the vehicle (DMSO). (C) An in vitro integrase (IN) assay was performed with 10 µM of the indicated compounds following the manufacturer’s protocol. **P < 0.01 compared with vehicle (DMSO). (D) A3.01 cells were infected with HIV-1 upon treatment with the indicated compounds (5 µM) and ARVs (EFV and DTG) as the experimental controls. At 40 h after infection, cellular chromosomal DNA was purified, and the integrated proviral DNA was detected through nested Alu-PCR amplification.
The activity of HIV-1 RT was determined as previously described with some minor modifications ([66][–][68]). In brief, HIV-1NL4-3 obtained from plasmid transfection was treated with DNase I (2.5 U/mL) for 2 h at 37°C to remove the plasmid DNA. […] Sixteen hours after infection, the cell cytosolic DNA was isolated under RNase A treatment, and the RT products (cytosolic viral cDNA) were quantified using RT-qPCR and the following primers: gag forward, 5′-[…]-3′, gag reverse, 5′-[…]-3′; 18S rRNA forward, 5′-[…]-3′, 18S rRNA reverse, 5′-[…]-3′. The relative levels of RT products were analyzed using the ΔΔCt-method, as described above. In vitro integrase activity was determined using an HIV-1 integrase assay kit (XpressBio, Frederick, MD, USA) as previously described ([12]). In brief, a 96-well plate coated with donor substrate DNA was blocked, and HIV-1 integrase was then added to the plate. Subsequently, the compounds and target substrate DNA were added to the plate and incubated for 30 min at 37°C. The plate was washed and subsequently incubated with horse radish peroxidase. Integrase activity was measured by the peroxidase activity with the substrate at an optical density of 450 nm. The experiment was performed in triplicates. Detection of integrated proviral DNA was performed as previously described ([69]) with some minor modifications. […] Chromosomal DNA was purified using the G-Spin DNA extraction kit (Intron Bio Tech, Seongnam-si, Gyeonggi-do, Republic of Korea). The integrated proviral HIV-1 DNA was detected by nested Alu-PCR amplification using the following primers: first round PCR, Alu forward, 5′-[…]-3′, pol reverse, 5′-[…]-3′; second round PCR, gag forward, 5′-[…]-3′, pol reverse. gapdh was used as the control gene.

HIV-1 transcripts = test: RNA-seq of HIV-1 transcripts in infected TZM-bl cells; format: cell-based; conditions: HIV-1NL4-3 MOI 1, 1.5 µM, 2 days
Description: At 48 h after infection, the total RNA was extracted using the Maxwell RSC simplyRNA Cells Kit (Promega) according to the manufacturer’s instructions. RNA integrity was evaluated as RNA integrity number >6 using the Agilent 2100 Bio-analyzer (Agilent Technologies, Santa Clara, CA, USA). The cDNA libraries were constructed using TruSeq Stranded mRNA Sample Preparation Kit (Illumina, San Diego, CA, USA) according to the manufacturer’s instructions. Subsequently, these cDNA libraries were sequenced on the Illumina sequencing platform (NovaSeq6000; Illumina) and 150 bp paired-end reads were generated. Trimmomatic (v.0.32) was used to eliminate low-quality reads and adapter sequences from the sequencing data ([64]). Subsequently, the filtered reads were aligned to the HIV-1 genome (accession: AF324493.2) using STAR (v.2.3.0) ([65]). RT-qPCR analyses were performed as previously described ([66]) with some minor modifications. […] After infection, the infected cells were treated with 1.5 µM of the compounds. Forty-eight hours after treatment, the viral mRNA was isolated, converted to cDNA, and quantified through RT-qPCR on a 7500 Real-Time PCR System (Applied Biosystems) using the Power SYBR Green PCR Master Mix (Applied Biosystems). The comparative cycle threshold (Ct) method was used to analyze relative changes (Δ) in gene expression. The ΔCt values were determined using a 7500 Real-Time PCR System Software (Applied Biosystems) normalizing with gapdh, and the gene expression was calculated using the ΔΔCt-method. The primers used in this assay are the following: gag forward, 5′-[…]-3′, gag reverse, 5′-[…]-3′; gapdh forward, 5′-[…]-3′, gapdh reverse, 5′-[…]-3′.

HIV-1NL4-3 [3] = test: HIV-1 infectivity in TZM-bl cells (F-Luc); format: cell-based; conditions: Human immunodeficiency virus 1, TZM-bl, 48 h, Table S1, WT virus, TZM-bl, fivefold serial dilutions, MOI 1, 48 h; read-out: EC50
[4] = tested on: NNRTI-resistant HIV-1 strain 12241; test: microbe, parasite or virus in culture; format: cell-based; conditions: Human immunodeficiency virus 1, TZM-bl
Description: (§1) Fig 7 (A–C) TZM-bl cells (1 × 10^4 cells/well) cultured in a 96-well plate were treated with fivefold serial dilutions of the indicated compound or ARV for 1 h before infection with the HIV-1NL4-3 or ARV-resistant HIV-1 strains at an MOI of 1, respectively. At 48 h after infection, the EC50 values were determined using an F-Luc activity. The symbols represent the fold-change values of EC50 against each mutant virus relative to the wild-type (WT) virus. (D) PBMCs (5 × 10^4 cells/well) were infected with the HIV-1NL4-3 and PIs-resistant HIV-1 strain at an MOI of 0.1, respectively. Subsequently, the PBMCs were treated with 10-fold serial dilutions of the indicated compounds or PI. At 3 days after infection, the EC50 values on the viral replication were determined using a p24 […] assay kit. (E) The inhibitory kinetics for the WT and ARV-resistant viruses. TZM-bl cells infected with WT or ARV-resistant viruses were cultured upon fivefold serial dilutions of each compound for 2 days and the infectivity was determined using an F-Luc activity.
(§2) The Tzm-bl-derived dual Tat reporter; TZM-bl/Tat/Rluc (bl-DTR) cells were established from TZM-bl cells using two Dox-inducible lentiviral expression cassettes cloned with Flag-tagged Tat86 and the R-Luc gene, as described in our previous study ([11]). TZM-bl, A3.01, J1.1, and J-Lat 6.3 cells as well as the HIV-1 molecular clone pNL4-3, pNL(AD8), ARV-resistant HIV-1 strains, and HIV-1NL43-IRES-eGFP (pBR43IeG-nef^+, gifted by Dr. Frank Kirchhoff) ([52]) were provided by the National Institute of Health HIV Reagent Program (NIH, Bethesda, MD, USA). HeLa (CCL-2) and 293T (CRL-3216) cell lines were purchased from the American Type Culture Collection (ATCC, Manassas, VA, USA). The bl-DTR, TZM-bl, HeLa, and 293T cells were cultured in Dulbecco’s modified Eagle’s medium supplemented with 1% penicillin–streptomycin and 10% (vol/vol) heat-inactivated fetal bovine serum (all from Gibco-BRL, Gaithersburg, MD, USA), and 1 µg/mL of puromycin and 200 µg/mL of zeocin were additionally supplemented for the bl-DTR cells. PBMCs were purchased from AllCells (Alameda, CA, USA) and cultured as previously described ([12]). The information on ARV-resistant HIV-1 strains was described in previous reports as follows: NNRTI-resistant 12241 and 12243 ([53]); NRTI-resistant 7396, 7406, and 7407 ([54]); INSTI-resistant 11847 and 11849 ([55], [56]); and PI-resistant 11800 and 11803 ([57]). Each molecular HIV-1 clone was transfected to 293T cells, as previously described ([58]), to obtain infectious HIV-1 particles. Virus-containing cell culture supernatants were collected 3 days after transfection, and filtered through a 0.45-µm membrane filter (Millipore Sigma, Burlington, MA, USA) to remove cell debris. The viral titration was performed as described previously ([59]) with some minor modifications. In brief, 1 × 10^4 TZM-bl cells seeded in 96-well plates were infected with 200 µL of virus-containing medium diluted serially twofold. The incubation was for 2 days and the experiment was performed in triplicate; the infection time minimized the virus spread ([59]). The titration of the infectious viral particles was performed with a ß-Gal staining assay using the ßeta-Galactosidase Staining Kit (Mirus Bio, Madison, WI, USA) following the manufacturer’s protocols. In brief, the infected cells were washed with phosphate-buffered saline (PBS) and fixed using a Cell Fixative Working solution. The cells were washed with PBS and stained using the Cell Staining Working Solution containing X-gal. The infected blue-colored cells were counted under a microscope (100× magnification). The infectious virus titer was determined as a mean value of blue-colored cells count × dilution factor and used for determining the multiplicity of infection (MOI) in each infection experiment.

[5] = tested on: NNRTI-resistant HIV-1 strain 12243; test: microbe, parasite or virus in culture; format: cell-based; conditions: Human immunodeficiency virus 1, TZM-bl
Description: as §1, §2

HIV-1NL4-3 [6] = test: HIV-1 replication in A3.01 cells (p24 […]); format: cell-based; conditions: fivefold serial dilutions, 3 days
Description: The p24 level from the cell supernatant was subsequently determined using a p24 […] kit (PerkinElmer). In parallel, the cell viability was determined without viral infection because of the viral cytopathic effect. […] In parallel, cell viability was determined. The data (A and B) are presented as the mean ± SD (n = 3). (C) PBMCs (4 × 10^5) infected with HIV-AD8 at an MOI of 0.1 were treated with 1.5 µM of the compounds or ARVs for 3 days. The levels of p24 and cell viability were subsequently determined. (D) J1.1 cells were cultured with the compounds ([…]) under 50 ng/mL phorbol myristate acetate (PMA) treatment for 2 days. The level of p24 was subsequently determined. (E) J-Lat 6.3 cells were treated with the compounds (1.5 µM) under 1 µg/mL of PMA for 2 days. The GFP-positive cell population was analyzed using flow cytometry. The data are represented as a value relative to the DMSO-treated vehicle (D) and a percent of the GFP^+ cell population (E) as mean ± SD (n = 3).
The inhibitory effects of the compounds on viral replication were determined with some minor modifications, as previously described ([12], [62]). […] PBMCs (4 × 10^5) pre-activated with PHA-M for 3 days were washed with fresh media to remove excess PHA-M and subsequently infected with HIV-1NL4-3 or HIV-1AD8 or PIs-resistant HIV-1 strains as A3.01 infection. After infection, the infectious media were replaced with fresh media supplemented with international 10 units (IU)/mL of IL-2 and the indicated compounds. At 72 h after infection, the inhibitory effect of the compounds on viral replication was determined by measuring the p24 amount, an HIV capsid protein, using an HIV-1 p24 […] kit (PerkinElmer, Waltham, MA, USA). Cell viability was determined as described above. The inhibitory effects on provirus reversing in J1.1 and J-Lat 6.3 cells were determined as previously described ([12], [41], [63]) with some minor modifications. Briefly, 5 × 10^4 persistently HIV-1-infected J1.1 or J-Lat 6.3 cells were cultured in either the presence or absence of the compounds at a final concentration of 1.5 µM and treated with PMA (50 ng/mL for J1.1 cells, 1 µg/mL for J-Lat 6.3 cells). Two days after treatment, the levels of viral production were determined using p24 […] for J1.1 cells and flow cytometry analysis for GFP-expressing J-Lat 6.3 cells.

Row | SMILES | inhibition of viral-expressed eGFP signal [1] | nested Alu-PCR band for integrated proviral DNA [2] | read counts of transcripts mapped to the HIV-1 genome (HIV-1 transcripts) | EC50 (HIV-1NL4-3 [3]) [µM] | EC50 [4] [µM] | EC50 [5] [µM] | inhibition of viral replication (in words) (HIV-1NL4-3 [6])
1 | Cc1[nH]c2ccc(-c3nnc(S(=O)(=O)C(C)C(=O)N4CCCC4)o3)cc2c1C (stereo not drawn) [Compound 21, 2-((5-(2,3-Dimethyl-1H-indol-5-yl)-1,3,4-oxadiazol-2-yl)sulfonyl)-1-(pyrrolidin-1-yl)propan-1-one] | did not | observed | not observed | – | – | – | –
2 | Cc1ccnc2c1NC(=O)c1cccnc1N2C1CC1 [NVP, nevirapine, reference compound] | – | – | – | 0.06 | > 100 | 23.9 ± 2.3 | –
3 | Cc1[nH]c2ccc(-c3nnc(S(=O)(=O)C(C)C(=O)N4CCCCC4)o3)cc2c1C (stereo not drawn) [Compound 20, 2-((5-(2,3-Dimethyl-1H-indol-5-yl)-1,3,4-oxadiazol-2-yl)sulfonyl)-1-(piperidin-1-yl)propan-1-one] | did not | – | not observed | – | – | – | did not
